Experimental findings from patent US20020026053A1, “Novel 3-(substituted) -2- indolinones compounds and use thereof as inhibitors of protein kinase activity” (priority 1997, published 2002) are described below.

In the test the target is T1, Met receptor (EGFR/Met chimeric cells, EMR) (Homo sapiens, UniProt P08581).
T1 construct: expressed in transfected cells; the other entry of the earlier key: EGFR (P00533, Epidermal growth factor receptor)
T1 sequence (P08581 with tags, fused parts or gaps): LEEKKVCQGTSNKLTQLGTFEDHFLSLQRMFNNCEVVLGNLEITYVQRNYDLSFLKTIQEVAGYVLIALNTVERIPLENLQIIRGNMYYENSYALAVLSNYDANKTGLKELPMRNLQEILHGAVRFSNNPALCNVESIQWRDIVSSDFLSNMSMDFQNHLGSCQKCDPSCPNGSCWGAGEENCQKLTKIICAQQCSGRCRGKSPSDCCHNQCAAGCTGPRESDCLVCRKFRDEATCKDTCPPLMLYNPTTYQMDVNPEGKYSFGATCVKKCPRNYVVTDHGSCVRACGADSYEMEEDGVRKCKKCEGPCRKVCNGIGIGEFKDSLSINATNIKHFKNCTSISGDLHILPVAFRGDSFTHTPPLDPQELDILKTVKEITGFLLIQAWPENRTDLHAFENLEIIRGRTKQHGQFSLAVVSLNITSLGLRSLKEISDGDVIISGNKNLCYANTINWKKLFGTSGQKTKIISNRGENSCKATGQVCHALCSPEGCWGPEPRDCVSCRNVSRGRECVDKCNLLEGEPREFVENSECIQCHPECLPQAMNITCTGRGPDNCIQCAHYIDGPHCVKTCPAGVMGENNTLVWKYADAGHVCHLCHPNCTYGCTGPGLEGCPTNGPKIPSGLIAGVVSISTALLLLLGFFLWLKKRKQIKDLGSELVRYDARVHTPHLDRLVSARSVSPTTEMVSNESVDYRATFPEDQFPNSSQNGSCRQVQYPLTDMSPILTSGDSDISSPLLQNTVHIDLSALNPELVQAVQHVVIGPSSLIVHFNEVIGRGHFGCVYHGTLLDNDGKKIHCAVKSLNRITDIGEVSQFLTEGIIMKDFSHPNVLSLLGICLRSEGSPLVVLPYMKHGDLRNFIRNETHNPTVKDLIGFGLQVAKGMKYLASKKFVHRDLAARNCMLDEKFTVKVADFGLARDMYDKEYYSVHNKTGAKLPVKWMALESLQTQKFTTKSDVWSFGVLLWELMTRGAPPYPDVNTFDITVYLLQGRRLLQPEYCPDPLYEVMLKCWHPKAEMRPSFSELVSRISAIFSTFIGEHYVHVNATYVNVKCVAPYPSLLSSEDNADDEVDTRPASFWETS
Description: Met Autophosphorylation Assay. It is filed as biochemical. As to the method:
Met Autophosphorylation Assay
This assay determines Met tyrosine kinase activity by analyzing Met protein tyrosine kinase levels on the Met receptor.
a. HNTG (5× stock solution): Dissolve 23.83 g HEPES and 43.83 g NaCl in about 350 ml dH2O. Adjust pH to 7.2 with HCl or NaOH, add 500 ml glycerol and 10 ml Triton X-100, mix, add dH2O to 1 L total volume. To make 1 L of 1× working solution add 200 ml 5× stock solution to 800 ml dH2O, check and adjust pH as necessary, store at 4° C.
b. PBS (Dulbecco's Phosphate-Buffered Saline), Gibco Cat. # 450-1300EB (1× solution).
c. Blocking Buffer: in 500 ml dH2O place 100 g BSA, 12.1 g Tris-pH7.5, 58.44 g NaCl and 10 ml Tween-20, dilute to 1 L total volume.
d. Kinase Buffer: To 500 ml dH2O add 12.1 g TRIS (pH 7.2), 58.4 g NaCl, 40.7 g MgCl2 and 1.9 g EGTA; bring to 1 L total volume with dH2O.
e. PMSF (Phenylmethylsulfonyl fluoride), Sigma Cat. # P-7626, to 435.5 mg, add 100% ethanol to 25 ml total volume, vortex.
f. ATP (Bacterial Source), Sigma Cat. # A-7699, store powder at −20° C.; to make up solution for use, dissolve 3.31 mg in 1 ml dH2O.
g. RC-20H HRPO Conjugated Anti-Phosphotyrosine, Transduction Laboratories Cat. # E120H.
h. Pierce 1-Step Turbo™ B-ELISA (3,3′,5,5′-tetramethylbenzidine, Pierce Cat. # 34022.
i. H2SO4, add 1 ml conc.(18 N) to 35 ml dH2O.
j. TRIS HCL, Fischer Cat. # BP152-5; to 121.14 g of material, add 600 ml MilliQ H2O, adjust pH to 7.5 (or 7.2) with HCl, bring volume to 1 L with MilliQ H2O.
k. NaCl, Fischer Cat. # S271-10, make up 5M solution.
m. Na3VO4, Fischer Cat. # S454-50, to 1.8 g material add 80 ml MilliQ H2O, adjust pH to 10.0 with HCl or NaOH, boil in microwave, cool, check pH, repeat procedure until pH stable at 10.0, add MilliQ H2O to 100 ml total volume, make 1 ml aliquots and store at −80° C.
n. MgCl2, Fischer Cat. # M33-500, make up 1M solution.
o. HEPES, Fischer Cat. # BP310-500, to 200 ml MilliQ H2O, add 59.6 g material, adjust pH to 7.5, bring volume to 250 ml total, sterile filter.
p. Albumin, Bovine (BSA), Sigma Cat. # A-4503, to 30 grams material add sterile distilled water to make total volume of 300 ml, store at 4° C.
q. TBST Buffer: to approx. 900 ml dH2O in a 1 L graduated cylinder add 6.057 g TRIS and 8.766 g NaCl, when dissolved, adjust pH to 7.2 with HCl, add 1.0 ml Triton X-100 and bring to 1 L total volume with dH2O.
r. Goat Affinity purified antibody Rabbit IgG (whole molecule), Cappel Cat. # 55641.
s. Anti h-Met (C-28) rabbit polyclonal IgG antibody, Santa Cruz Chemical Cat. # SC-161.
t. Transiently Transfected EGFR/Met chimeric cells (EMR) (Komada, et al., Oncogene, 8:2381-2390 (1993).
u. Sodium Carbonate Buffer, ([…], Fischer Cat. # S495) to 10.6 g material add 800 ml MilliQ H2O, when dissolved adjust pH to 9.6 with NaOH, bring up to 1 L total volume with MilliQ H2O, filter, store at 4° C.
All of the following steps are conducted at room temperature unless it is specifically indicated otherwise. All ELISA plate washing is by rinsing 4× with TBST.
This procedure can be performed the night before or immediately prior to the start of receptor capture.
1. Quick thaw lysates in a 37° C. waterbath with a swirling motion until the last crystals disappear.
2. Lyse cell pellet with 1× HNTG containing 1 mM PMSF. Use 3 ml of HNTG per 15 cm dish of cells. Add ½ the calculated HNTG volume, vortex the tube for 1 min., add the remaining amount of HNTG, vortex for another min.
3. Balance tubes, centrifuge at 10,000× g for 10 min at 4° C.
4. Pool supernatants, remove an aliquot for protein determination.
5. Quick freeze pooled sample in dry ice/ethanol bath. This step is performed regardless of whether lysate will be stored overnight or used immediately following protein determination.
6. Perform protein determination using standard bicinchoninic acid (BCA) method (BCA Assay Reagent Kit from Pierce Chemical Cat. # 23225).
1. Coat Corning 96 well ELISA plates with 5 μg per well Goat anti-Rabbit antibody in Carbonate Buffer for a total well volume of 50 μl. Store overnight at 4° C. […]
As for `COc1cc(Br)cc(C=C2C(=O)Nc3c(Br)cc(Br)c(C)c32)c1O` [10733/H08], the “Met Kinase % Inhibition (P.130)” value is listed as 41.6%.

For the compound `Cc1c(Br)cc(Br)c2c1C(=Cc1cc(O)ccc1O)C(=O)N2` [10727/H10], the “Met Kinase % Inhibition (P.130)” value is reported as 89.7%.

For `Cc1c(Br)cc(Br)c2c1C(=Cc1coc3ccc(C(C)C)cc3c1=O)C(=O)N2` [10731/H05], the “Met Kinase % Inhibition (P.130)” value was determined as 32.2%.

On to `Cc1c(Br)cc(Br)c2c1C(=Cc1cccc(Oc3ccccc3)c1)C(=O)N2` [10729/H06], for which the “Met Kinase % Inhibition (P.130)” value was 28.4%.

As for `Cc1c(Br)cc(Br)c2c1C(=Cc1ccc3c(c1)Cc1ccccc1-3)C(=O)N2` [10728/H06], the “Met Kinase % Inhibition (P.130)” value turned out to be 28.5%.

As for `Cc1c(Br)cc(Br)c2c1C(=Cc1ccc(Br)cc1)C(=O)N2` [10717/H08], the “Met Kinase % Inhibition (P.130)” value turned out to be 23.0%.

For `COc1c(Cl)cc(C=C2C(=O)Nc3c(Br)cc(Br)c(C)c32)cc1C(C)(C)C` [10732/H09], the “Met Kinase % Inhibition (P.130)” value is given as 49.8%.

As to `Cc1c(Br)cc(Br)c2c1C(=Cc1cc(I)c(OCc3ccccc3)c(C(C)(C)C)c1)C(=O)N2` [10733/H02], the “Met Kinase % Inhibition (P.130)” value was determined as 38.9%.

For the compound `Cc1c(Br)cc(Br)c2c1C(=Cc1cc(Br)c(OCc3ccccc3)c(C(C)(C)C)c1)C(=O)N2` [10732/H08], the “Met Kinase % Inhibition (P.130)” value was 38.7%.

Regarding `Cc1c(Br)cc(Br)c2c1C(=Cc1cc(Cl)c(OCc3ccccc3)c(C(C)(C)C)c1)C(=O)N2` [10732/H10], the “Met Kinase % Inhibition (P.130)” value amounted to 28.0%.

In the case of `COc1cc(OC)c(OC)cc1C=C1C(=O)Nc2c(Br)cc(Br)c(C)c21` [10730/H03], the “Met Kinase % Inhibition (P.130)” value is 28.3%.

`COC1CC(C=C2C(=O)Nc3c(Br)cc(Br)c(C)c32)C(OC)O1` (stereo not shown) [10730/H10]: the “Met Kinase % Inhibition (P.130)” value was 24.9%.

Regarding `COc1ccc(OC)c(C=C2C(=O)Nc3c(Br)cc(Br)c(C)c32)c1` [10728/H02], the “Met Kinase % Inhibition (P.130)” value was 25.8%.

In the case of `Cc1c(Br)cc(Br)c2c1C(=Cc1cc([N+](=O)[O-])ccc1O)C(=O)N2` [10733/H10], the “Met Kinase % Inhibition (P.130)” value came to 26.5%.

Turning to `COc1ccc(C=C2C(=O)Nc3c(Br)cc(Br)c(C)c32)cc1` [10726/H11], the “Met Kinase % Inhibition (P.130)” value came to 40.8%.

On to `COc1ccc2ccccc2c1C=C1C(=O)Nc2c(Br)cc(Br)c(C)c21` [10729/H02], for which the “Met Kinase % Inhibition (P.130)” value is 25.5%.

`Cc1c(Br)cc(Br)c2c1C(=Cc1cc3c(cc1Cl)OCO3)C(=O)N2` [10727/H06]: the “Met Kinase % Inhibition (P.130)” value is reported as 5.2%.

As for `Cc1c(Br)cc(Br)c2c1C(=Cc1ccc(Br)o1)C(=O)N2` [10726/H05], the “Met Kinase % Inhibition (P.130)” value was determined as 80.2%.

As for `Cc1c(Br)cc(Br)c2c1C(=Cc1c(F)cccc1C(F)(F)F)C(=O)N2` [10728/H09], the “Met Kinase % Inhibition (P.130)” value worked out at 30.5%.

Regarding `Cc1c(Br)cc(Br)c2c1C(=Cc1coc3ccc([N+](=O)[O-])cc3c1=O)C(=O)N2` [10731/H07], the “Met Kinase % Inhibition (P.130)” value was found to be 1.8%.

With `Cc1c(Br)cc(Br)c2c1C(=CC(c1cccs1)C(F)(F)F)C(=O)N2` (stereo not shown) [10732/H02], the “Met Kinase % Inhibition (P.130)” value is given as 56.8%.

Turning to `COc1c(I)cc(C=C2C(=O)Nc3c(Br)cc(Br)c(C)c32)cc1C(C)(C)C` [10732/H11], the “Met Kinase % Inhibition (P.130)” value is 46.7%.

Take `COc1c(C(C)C)cc(C=C2C(=O)Nc3c(Br)cc(Br)c(C)c32)cc1C(C)C` [10732/H03]: the “Met Kinase % Inhibition (P.130)” value was 24.1%.

Take `Cc1c(Br)cc(Br)c2c1C(=Cc1cccc(C#N)c1)C(=O)N2` [10727/H08]: the “Met Kinase % Inhibition (P.130)” value is listed as 12.3%.

As for `CSc1ccc(C=C2C(=O)Nc3c(Br)cc(Br)c(C)c32)cc1` [10729/H04], the “Met Kinase % Inhibition (P.130)” value is 25.1%.

Regarding `Cc1c(Br)cc(Br)c2c1C(=Cc1cc(C(C)(C)C)c(OCc3ccccc3)c(C(C)(C)C)c1)C(=O)N2` [10733/H05], the “Met Kinase % Inhibition (P.130)” value came out at 5.6%.

As to `Cc1cc2occ(C=C3C(=O)Nc4c(Br)cc(Br)c(C)c43)c(=O)c2cc1C` [10731/H03], the “Met Kinase % Inhibition (P.130)” value was 23.3%.

Consider `Cc1c(Br)cc(Br)c2c1C(=Cc1cccnc1)C(=O)N2` [10729/H08], for which the “Met Kinase % Inhibition (P.130)” value worked out at 44.0%.

With `Cc1c(Br)cc(Br)c2c1C(=Cc1cc(O)c3c(c1O)CCCC3)C(=O)N2` [10726/H07], the “Met Kinase % Inhibition (P.130)” value amounted to 80.9%.

For `Cc1c(Br)cc(Br)c2c1C(=Cc1cccc(C(F)(F)F)c1F)C(=O)N2` [10728/H07], the “Met Kinase % Inhibition (P.130)” value amounted to 45.8%.

Turning to `Cc1c(Br)cc(Br)c2c1C(=Cc1ccccn1)C(=O)N2` [10729/H07], the “Met Kinase % Inhibition (P.130)” value is 81.0%.

On to `Cc1c(Br)cc(Br)c2c1C(=C1C(=O)Nc3ccccc31)C(=O)N2` [10726/H09], for which the “Met Kinase % Inhibition (P.130)” value worked out at 68.1%.

Turning to `CCn1c2ccccc2c2cc(C=C3C(=O)Nc4c(Br)cc(Br)c(C)c43)ccc21` [10731/H02], the “Met Kinase % Inhibition (P.130)” value is listed as 16.4%.

Turning to `Cc1c(Br)cc(Br)c2c1C(=C1C(=O)N(C)c3ccccc31)C(=O)N2` [10731/H10], the “Met Kinase % Inhibition (P.130)” value turned out to be 28.4%.

Take `Cc1ccc(C=C2C(=O)Nc3c(Br)cc(Br)c(C)c32)s1` [10717/H07]: the “Met Kinase % Inhibition (P.130)” value is given as 9.1%.

For `Cc1c(Br)cc(Br)c2c1C(=Cc1ccc(F)cc1)C(=O)N2` [10717/H05], the “Met Kinase % Inhibition (P.130)” value is listed as 16.3%.

Regarding `Cc1cn(C)cc1C=C1C(=O)Nc2c(Br)cc(Br)c(C)c21` [10726/H06], the “Met Kinase % Inhibition (P.130)” value amounted to 35.1%.

Turning to `Cc1c(Br)cc(Br)c2c1C(=Cc1cc(Br)ccc1O)C(=O)N2` [10733/H09], the “Met Kinase % Inhibition (P.130)” value worked out at 51.9%.

Turning to `COc1c(Br)cc(C=C2C(=O)Nc3c(Br)cc(Br)c(C)c32)cc1C(C)(C)C` [10732/H07], the “Met Kinase % Inhibition (P.130)” value was 26.7%.

`CCN(CC)c1ccc(C=C2C(=O)Nc3c(Br)cc(Br)c(C)c32)cc1` [10727/H02]: the “Met Kinase % Inhibition (P.130)” value stood at 55.5%.

Consider `CCc1cc(CC)c(C=C2C(=O)Nc3c(Br)cc(Br)c(C)c32)[nH]1` [10727/H03], for which the “Met Kinase % Inhibition (P.130)” value is listed as 49.2%.

Turning to `Cc1c(Br)cc(Br)c2c1C(=Cc1ccncc1)C(=O)N2` [10729/H09], the “Met Kinase % Inhibition (P.130)” value is on record as 45.1%.

Consider `Cc1c(Br)cc(Br)c2c1C(=Cc1ccc(OCc3ccccc3)c(C(C)(C)C)c1)C(=O)N2` [10732/H06], for which the “Met Kinase % Inhibition (P.130)” value is 31.1%.

In the case of `C=C(C)C1CC=C(C=C2C(=O)Nc3c(Br)cc(Br)c(C)c32)CC1` (stereo not shown) [10731/H04], the “Met Kinase % Inhibition (P.130)” value stood at 41.0%.

As for `Cc1c(Br)cc(Br)c2c1C(=Cc1coc3ccccc3c1=O)C(=O)N2` [10727/H07], the “Met Kinase % Inhibition (P.130)” value turned out to be 26.8%.

`COc1ccc(C=C2C(=O)Nc3c(Br)cc(Br)c(C)c32)cc1C(C)(C)C` [10732/H05]: the “Met Kinase % Inhibition (P.130)” value is reported as 13.3%.
